Key:
[1] = test system: formalin-evoked acute and persistent nociceptive behaviors; assay: Formalin test (acute nocifensive response; PFD7 hypersensitivity and paw edema); assay type: in vivo, mice
Experimental: (§1) We used male CD-1 mice (9-10 weeks old; Charles River, Wilmington, MA, US) weighing 25-30 g upon arrival. They were randomly assigned to treatment groups and housed in ventilated plastic cages (4-5 per cage) in the animal facility of the University of California, Irvine. Animals were maintained in a pathogen-free environment (12-h light/dark cycle) under controlled temperature (20±2° C.) and humidity (55-60%) with food and water available ad libitum. Mice were allowed to acclimate for at least 7 days and experiments were conducted during the light phase of the light/dark cycle. All efforts were made to minimize the number of animals used and their discomfort. All procedures were approved by the Institutional Animal Care and Use Committee at the University of California, Irvine, and were carried out in strict accordance with the National Institutes of Health guidelines for the care and use of animals.
(§2) HOE (code: VOHO-MGC) and PEA (batch No 20190604_03) were supplied by Metagenics Inc. The chemical composition of HOE is presented in Table A below. The extract was aliquoted upon arrival at our facility and kept at −80° C. until use. Before tests, aliquots were thawed at room temperature and the extract was diluted to the desired dose in a vehicle of 85% distilled water/15% Tween 80. Defrosted samples were discarded after use. HOE was subjected to an internal quality control to monitor its content of CBD and CBDA over time. HOE, PEA and their combinations were administered in volumes of 10 mL/kg by oral gavage.
The formalin test was described in detail previously (e.g., see Dubuisson & Dennis, 1977). We injected formalin (1% v/v, 10 μL) or vehicle (saline, 10 μL) into the plantar surface of the right hind paw of male mice. Test compounds or vehicle (85% distilled water/15% Tween 80) were administered orally 1 h before formalin injection. Following injection, mice were immediately transferred to a transparent observation chamber where nocifensive behavior (time spent licking or biting the injected paw, number of shakings) was continuously recorded by a video camera for 60 min and then measured by trained observers blinded to experimental conditions. Behavioral tests and paw edema measurements were performed on post-formalin day (PFD) 7 in both the injected (ipsilateral) and contralateral paws.
(§3) Mechanical sensitivity was assessed using a dynamic plantar aesthesiometer (Cat. No 37450, Ugo Basile, Italy). Mice were placed individually in transparent cages positioned on a wire mesh surface. After a 45-min habituation period, a mechanical stimulus was delivered to the plantar surface of the hind paws through the metal grid by an automated steel filament exerting an increasing force ranging from 0 to 5 grams over 10 s. The force at which the mouse withdrawn its paw (withdrawal threshold, in grams) was measured automatically. Thermal sensitivity was measured using a Hargreaves plantar test apparatus (San Diego Instruments, Inc, CA, USA). Mice were individually placed in small enclosures with a glass floor. After a 45-min habituation period, the plantar surface of the hind paws was exposed to a beam of radiant heat (infrared heat intensity: 3.0) through the glass floor. The cut-off time was set at 15 s. The time taken to withdraw the paw from heat stimulus (withdrawal latency, in seconds) was measured automatically. Each paw was tested 3 times with a 2-min interval between stimuli and the mean paw withdrawal threshold and latency were calculated. Paw thickness was measured in both ipsilateral and contralateral paws using a digital caliper (Cat. No 06-664-16, Fisher scientific, USA). Paw edema was quantified as the difference (paw thickness, in mm) between the ipsilateral paw thickness and the contralateral counterpart.
Results are presented as mean S.E.M. of n experiments. ED50 values were determined by linear regression analysis of dose-response curves. […]

[2] = test system: CCI-evoked mechanical allodynia and heat hyperalgesia; assay: Chronic constriction injury (CCI) of the sciatic nerve: mechanical allodynia and heat hyperalgesia; assay type: in vivo, mice
Experimental: as §1, §2
(§4) We elicited peripheral neuropathy in the left sciatic nerve of mice as described elsewhere (e.g., see Bennett & Xie, 1988). In brief, mice were anesthetized in 2-3% isoflurane in O2. Under aseptic conditions, the sciatic nerve was exposed at mid-thigh level through a small incision and loosely tied at 3 distinct sites (spaced at 1-mm interval) with 4-0 chromic catgut (Ethicon, USA). The wound was closed with a single muscle suture (Mersilk 5.0, Ethicon, USA) and glue to fasten the skin. Operated mice were returned to their home cages for recovery. Test compounds or vehicle were given by the oral route on day 7 after surgery (acute treatment) and then repeatedly once daily for 7 consecutive days (subchronic treatment). Behavioral tests were performed within 1 h of acute treatment or last subchronic treatment in both operated (ipsilateral) and contralateral paws. Mice were sacrificed by decapitation, the spinal cords were extruded by hydraulic pressure and processed for specific mRNA quantification in lumbar segments by real-time quantitative PCR.
as §3, with “Paw edema was quantified as the difference (paw thickness, in mm) between the ipsilateral paw thickness and the contralateral counterpart.” left out

[3] = test system: IL-10 mRNA; assay: Real-time quantitative PCR in lumbar spinal cords of CCI mice, IL-10; assay type: in vivo; conditions: PEA 20 mg/kg alone, oral, lumbar spinal cord, vs vehicle
Text: as §4, with “Test compounds or vehicle were given by the oral route on day 7 after surgery (acute treatment) and then repeatedly once daily for 7 consecutive days (subchronic treatment). Behavioral tests were performed within 1 h of acute treatment or last subchronic treatment in both operated (ipsilateral) and contralateral paws.” left out
We extracted total RNA from lumbar spinal cords (L3-L6) using TRIzol™ reagent (Thermo Fisher Scientific, Walthman, USA) and purified with the PureLink™ RNA Mini Kit (Invitrogen, Carlsbad, USA) as directed by the supplier. […] RNA concentration and purity were determined using the NanoDrop 2000/2000-c spectrophotometer (Thermo Fisher Scientific, Walthman, USA). cDNA was synthesized using 2 μg of total RNA as input for the High-Capacity cDNA RT Kit with RNase Inhibitor (Applied BioSystems, Foster City, USA) with a final reaction volume of 20 μL. […]

[4] = PEA 300 mg/kg oral single dose, PFD7, vs vehicle
[5] = PEA at dosages lower than 300 mg/kg oral, PFD7, P>0.05 vs vehicle
[6] = PEA 100 or 300 mg/kg oral once daily for 7 consecutive days, day 14 after CCI
[7] = single oral PEA administration, dose-response, day 7 after CCI, vs vehicle

CCCCCCCCCCCCCCCC(=O)NCCO [PEA, palmitoylethanolamide]
alleviation of heat hyperalgesia, contralateral paw [1, 4]: 110%
alleviation of heat hyperalgesia, ipsilateral paw [1, 4]: 93%
attenuation of mechanical allodynia, contralateral paw [1, 4]: 112%
attenuation of mechanical allodynia, ipsilateral paw [1, 4]: 91%
formalin-evoked nocifensive response ([1]; PEA 10, 30, 100 and 300 mg/kg oral): dose-dependent suppression
formalin-evoked inflammatory response (paw thickness) ([1]; PEA 10, 30, 100 and 300 mg/kg oral, PFD7): dose-dependent suppression
effect on heat hyperalgesia [1, 5]: no effect
effect on mechanical allodynia [1, 5]: no effect
effect on heat hyperalgesia, subchronic [2, 6]: reversed
effect on mechanical allodynia, subchronic [2, 6]: reversed
ED50, suppression of mechanical allodynia ([2]; single oral PEA administration, day 7 after CCI, 95% CI 18.7 to 26.0): 22.2 mg/kg
ED50, suppression of heat hyperalgesia ([2]; single oral PEA administration, day 7 after CCI, 95% CI 21.8 to 29.1): 25.1 mg/kg
suppression of heat hyperalgesia (maximal) [2, 7]: ≤ 109%
suppression of mechanical allodynia (maximal) [2, 7]: up to 85%
IL-10 mRNA levels [3]: halved

From US12370230B2, “Hemp and PEA formulation and its use” (priority 2019, dated 2025)
